According to patent US10913738B2 (BRISTOL-MYERS SQUIBB COMPANY, priority 2017, dated 2021):
Where two headings read alike, the source gives them in different places.

How the values were obtained:
[1] = system: MLKL phosphorylation in HT29-L23 human colorectal adenocarcinoma cells; experiment: MLKL Phosphorylation High-Content Assay; assay type: cell-based; details: Homo sapiens
Method in brief: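 Cells incubated six hours at 37° C., then phospho-MLKL (S358) immunostained overnight at 4° C. and imaged by high-content microscopy. Phosphorylation quantified as mean circ-ring average intensity ratio; IC50 and Ymax from 4-parameter logistic fits.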

[2] = biological target: T1, His-GST-TVMV-hRIPK1(1-324) (Homo sapiens, UniProt Q13546); experiment: RIPK1 HTRF Binding Assay
T1 construct: The coding region of human RIPK1(1-324) flanked by NdeI site at 5′ end; made in house; host or cells: Spodoptera frugiperda (Sf9) insect cells, baculovirus
T1 sequence (Q13546 1-324): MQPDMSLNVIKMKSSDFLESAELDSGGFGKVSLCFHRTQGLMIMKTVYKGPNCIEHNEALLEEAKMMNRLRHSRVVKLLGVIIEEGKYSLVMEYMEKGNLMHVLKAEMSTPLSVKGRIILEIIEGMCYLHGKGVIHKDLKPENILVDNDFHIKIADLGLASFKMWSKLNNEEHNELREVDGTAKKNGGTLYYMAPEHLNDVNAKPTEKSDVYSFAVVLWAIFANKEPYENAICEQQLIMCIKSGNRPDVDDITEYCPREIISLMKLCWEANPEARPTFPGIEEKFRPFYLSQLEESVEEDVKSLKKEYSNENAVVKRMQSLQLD

[3] = x marks IC50 class 20-200 nM, read-out: pMLKL cell activity 20-200 nM
[4] = x marks IC50 class <20 nM, read-out: RIPK1 HTRF binding <20 nM
[5] = x marks IC50 class <20 nM, read-out: pMLKL cell activity <20 nM
[6] = x marks IC50 class >200 nM, read-out: pMLKL cell activity >200 nM
[7] = x marks IC50 class 20-200 nM, read-out: RIPK1 HTRF binding 20-200 nM

With COc1ncc(-c2ccn3nc(N)nc3c2)cc1C(=O)NCc1cccc(F)c1OC1CCCC1 [Example 50, 5-{2-Amino-[1,2,4]triazolo[1,5-a]pyridin-7-yl}-N-{[2-(cyclopentyloxy)-3-fluorophenyl]methyl}-2-methoxypyridine-3-carboxamide] the IC50 [1, 3] was 20 to 200 nM and the IC50 [2, 4] was < 20 nM.

For COc1ncc(-c2ccn3nc(N)nc3c2)cc1C(=O)NCc1ccc(F)cc1OC1CCCC1 [Example 51, 5-{2-Amino-[1,2,4]triazolo[1,5-a]pyridin-7-yl}-N-{[2-(cyclopentyloxy)-4-fluorophenyl]methyl}-2-methoxypyridine-3-carboxamide], the IC50 [1, 3] was 20 to 200 nM and the IC50 [2, 4] was < 20 nM.

With COc1ncc(-c2ccn3nc(N)nc3c2)cc1C(=O)NCc1c(F)cccc1OC1CCCC1 [Example 52, 5-{2-Amino-[1,2,4]triazolo[1,5-a]pyridin-7-yl}-N-{[2-(cyclopentyloxy)-6-fluorophenyl]methyl}-2-methoxypyridine-3-carboxamide] the IC50 [1, 5] was < 20 nM and the IC50 [2, 4] was < 20 nM.

In the case of Nc1nc2cc(-c3cnc(N)c(C(=O)NCc4c(F)cccc4OCC4CC4)c3)ccn2n1 [Example 53, 2-Amino-5-{2-amino-[1,2,4]triazolo[1,5-a]pyridin-7-yl}-N-{[2-(cyclopropylmethoxy)-6-fluorophenyl]methyl}pyridine-3-carboxamide], the IC50 [1, 3] is reported as 20 to 200 nM and the IC50 [2, 4] is reported as < 20 nM.

For Nc1nc2cc(-c3cnc(N)c(C(=O)NCc4ccccc4OC4CCCC4)c3)ccn2n1 [Example 54, 2-Amino-5-{2-amino-[1,2,4]triazolo[1,5-a]pyridin-7-yl}-N-{[2-(cyclopentyloxy)phenyl]methyl}pyridine-3-carboxamide], the IC50 [1, 3] was 20 to 200 nM and the IC50 [2, 4] was < 20 nM.

With CC(C)Oc1ccccc1CNC(=O)c1cc(-c2ccn3nc(N)nc3c2)cnc1N [Example 55, 2-Amino-5-{2-amino-[1,2,4]triazolo[1,5-a]pyridin-7-yl}-N-{[2-(propan-2-yloxy)phenyl]methyl}pyridine-3-carboxamide] the IC50 [1, 3] was 20 to 200 nM and the IC50 [2, 4] was < 20 nM.

Nc1nc2cc(-c3cnc(N)c(C(=O)NCc4ccccc4OCC4CC4)c3)ccn2n1 [Example 56, 2-Amino-5-{2-amino-[1,2,4]triazolo[1,5-a]pyridin-7-yl}-N-{[2-(cyclopropylmethoxy)phenyl]methyl}pyridine-3-carboxamide] was tested, and the IC50 [1, 3] was 20 to 200 nM and the IC50 [2, 4] was < 20 nM.

CNc1ncc(-c2ccn3nc(N)nc3c2)cc1C(=O)NCc1ccccc1Sc1ccccc1CO [Example 57] was tested, and the IC50 [1, 3] was 20 to 200 nM and the IC50 [2, 4] was < 20 nM.

Nc1nc2cc(-c3cncc(C(=O)NCc4ccccc4Sc4ccccc4CO)c3)ccn2n1 [Example 59, 5-{2-Amino-[1,2,4]triazolo[1,5-a]pyridin-7-yl}-N-{[(2-[2-(hydroxymethyl)phenyl]sulfanyl}phenyl)methyl]pyridine-3-carboxamide] was tested, and the IC50 [1, 3] was 20 to 200 nM and the IC50 [2, 4] was < 20 nM.

In the case of Nc1nc2cc(-c3cc(C(=O)NCc4ccccc4Sc4ccccc4CO)c4cc(F)ccc4n3)ccn2n1 [Example 60, 2-{2-Amino-[1,2,4]triazolo[1,5-a]pyridin-7-yl}-6-fluoro-N-[(2-{[2-(hydroxymethyl)phenyl]sulfanyl}phenyl)methyl]quinoline-4-carboxamide], the IC50 [1, 6] is reported as > 200 nM and the IC50 [2, 7] is reported as 20 to 200 nM.

CCc1ncc(-c2ccn3nc(N)nc3c2)cc1C(=O)NCc1ccccc1Sc1ccccc1CO [Example 61, 5-{2-Amino-[1,2,4]triazolo[1,5-a]pyridin-7-yl}-2-ethyl-N-[(2-{[2-(hydroxymethyl)phenyl]sulfanyl}phenyl)methyl]pyridine-3-carboxamide] was tested, and the IC50 [1, 5] was < 20 nM and the IC50 [2, 4] was < 20 nM.

In the case of Nc1nc2cc(-c3cnc(N)c(C(=O)NCc4ccccc4Sc4ccccc4CO)c3)ccn2n1 [Example 62, 2-Amino-5-{2-amino-[1,2,4]triazolo[1,5-a]pyridin-7-yl}-N-[(2-{[2-(hydroxymethyl)phenyl]sulfanyl}phenyl)methyl]pyridine-3-carboxamide], the IC50 [1, 3] is reported as 20 to 200 nM and the IC50 [2, 4] is reported as < 20 nM.

CCCOc1ncc(-c2ccn3nc(N)nc3c2)cc1C(=O)NCc1ccccc1Sc1ccccc1CO [Example 63] was tested, and the IC50 [1, 3] was 20 to 200 nM and the IC50 [2, 4] was < 20 nM.

For CC(CCNC(=O)c1cc(-c2ccn3nc(N)nc3c2)cnc1N(C)C)c1ccccc1 (stereo not drawn) [Example 64, 5-{2-Amino-[1,2,4]triazolo[1,5-a]pyridin-7-yl}-2-(dimethylamino)-N-(3-phenylbutyl)pyridine-3-carboxamide], the IC50 [1, 3] was 20 to 200 nM and the IC50 [2, 7] was 20 to 200 nM.

With CC(CCNC(=O)c1cc(-c2ccn3nc(N)nc3c2)cnc1N)c1ccccc1 (stereo not drawn) [Example 65, 2-Amino-5-{2-amino-[1,2,4]triazolo[1,5-a]pyridin-7-yl}-N-(3-phenylbutyl)pyridine-3-carboxamide] the IC50 [1, 3] was 20 to 200 nM and the IC50 [2, 4] was < 20 nM.

CCc1ncc(-c2ccn3nc(N)nc3c2)cc1C(=O)NCCC(C)c1ccccc1 (stereo not drawn) [Example 66, 5-{2-Amino-[1,2,4]triazolo[1,5-a]pyridin-7-yl}-2-ethyl-N-(3-phenylbutyl)pyridine-3-carboxamide] was tested, and the IC50 [1, 3] was 20 to 200 nM and the IC50 [2, 4] was < 20 nM.

Compound CC(CCNC(=O)c1cc(-c2ccn3nc(N)nc3c2)nc2ccc(F)cc12)c1ccccc1 (stereo not drawn) [Example 67, 2-{2-Amino-[1,2,4]triazolo[1,5-a]pyridin-7-yl}-6-fluoro-N-(3-phenylbutyl)quinoline-4-carboxamide] has an IC50 [1, 3] of 20 to 200 nM and an IC50 [2, 7] of 20 to 200 nM.

With Nc1nc2cc(-c3cc(C(=O)Nc4cnn(Cc5ccccc5)c4)c4cc(F)ccc4n3)ccn2n1 [Example 68, 2-{2-Amino-[1,2,4]triazolo[1,5-a]pyridin-7-yl}-N-(1-benzyl-1H-pyrazol-4-yl)-6-fluoroquinoline-4-carboxamide] the IC50 [1, 3] was 20 to 200 nM and the IC50 [2, 7] was 20 to 200 nM.

For CCCOc1ncc(-c2ccn3nc(N)nc3c2)cc1C(=O)NCCC(C)c1ccccc1 (stereo not drawn) [Example 69, 5-{2-Amino-[1,2,4]triazolo[1,5-a]pyridin-7-yl}-N-(3-phenylbutyl)-2-propoxypyridine-3-carboxamide], the IC50 [1, 6] was > 200 nM and the IC50 [2, 4] was < 20 nM.

For CNc1ncc(-c2ccn3nc(N)nc3c2)cc1C(=O)NCCC(C)c1ccccc1 (stereo not drawn) [Example 70, 5-{2-Amino-[1,2,4]triazolo[1,5-a]pyridin-7-yl}-2-(methylamino)-N-(3-phenylbutyl)pyridine-3-carboxamide], the IC50 [1, 3] was 20 to 200 nM and the IC50 [2, 4] was < 20 nM.

CC(CCNC(=O)c1ccnc(-c2ccn3nc(N)nc3c2)c1)c1ccccc1 (stereo not drawn) [Example 72, 2-{2-Amino-[1,2,4]triazolo[1,5-a]pyridin-7-yl}-N-(3-phenylbutyl)pyridine-4-carboxamide] was tested, and the IC50 [1, 6] was > 200 nM and the IC50 [2, 7] was 20 to 200 nM.

In the case of CC(CCNC(=O)c1cncc(-c2ccn3nc(N)nc3c2)c1)c1ccccc1 (stereo not drawn) [Example 73, 5-{2-Amino-[1,2,4]triazolo[1,5-a]pyridin-7-yl}-N-(3-phenylbutyl)pyridine-3-carboxamide], the IC50 [1, 6] is reported as > 200 nM and the IC50 [2, 4] is reported as < 20 nM.

For COc1ncc(-c2ccn3nc(N)nc3c2)cc1C(=O)NCCC(O)c1ccc(F)c(F)c1 (stereo not drawn) [Example 77, 5-{2-Amino-[1,2,4]triazolo[1,5-a]pyridin-7-yl}-N-[3-(3,4-difluorophenyl)-3-hydroxypropyl]-2-methoxypyridine-3-carboxamide], the IC50 [1, 3] was 20 to 200 nM and the IC50 [2, 7] was 20 to 200 nM.

With COc1ncc(-c2ccn3nc(N)nc3c2)cc1C(=O)NCCC(O)c1ccc(F)cc1 (stereo not drawn) [Example 78, 5-{2-Amino-[1,2,4]triazolo[1,5-a]pyridin-7-yl}-N-[3-(4-fluorophenyl)-3-hydroxypropyl]-2-methoxypyridine-3-carboxamide] the IC50 [1, 3] was 20 to 200 nM and the IC50 [2, 7] was 20 to 200 nM.
